According to publication PMC8759985 (Computational and Structural Biotechnology Journal, 2021):

Target: T1, TRMT2A RRM (Homo sapiens, UniProt Q8IZ69)
T1 sequence (Q8IZ69 69-147): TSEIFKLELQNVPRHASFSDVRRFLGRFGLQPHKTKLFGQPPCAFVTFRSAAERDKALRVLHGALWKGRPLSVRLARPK
Experiment: SPR
Type: binding

Q: Which Kd does the source give for `NCCCNCCCCNCCCN` [spermine] here?
A: 1300 ± 270 nM
